Assay results: paper PMC11343376, “In vivo pharmacokinetics of ginsenoside compound K mediated by gut microbiota” (PLOS ONE, 2024)
Like-named read-outs stand apart in the source and are kept apart here.

Experiments:
[1] = Pharmacokinetics of GCK in SPF and pseudo-GF rats after single oral administration (LC-MS/MS of plasma); assay type: in vivo, Sprague-Dawley (SD) rats; details: for AUC(0-inf) / Tmax / half-life / AUC(0-t) / CL/F / MRT last / Vd/F / Cmax: Sprague-Dawley, rat, plasma, po, 22.5 mg/kg, GCK 22.5 mg/kg single oral dose; for AUC(0-t): read-out: AUC (0–11); for CL/F: read-out: CLz/F (converted); for MRT last: read-out: MRT(0–11); for Vd/F: read-out: Vz/F; for Cmax: rat plasma, n = 7, mean ± SD
Experimental: SD rats were randomly divided into two groups: normal control group (SPF group, n = 7) and pseudo-GF group (n = 7). To deplete the gut microbiota, a solution of ampicillin (50 mg/kg), vancomycin (25 mg/kg), neomycin sulfate (50 mg/kg), and metronidazole (50 mg/kg) were orally administered. Fresh antibiotic concoction with fed ampicillin in water (0.25 g/L) were prepared every day for a week. The feces were collected three days after withdrawal, and then the gut bacterial DNA was extracted with a stool DNA kit (Omega, D4015-01) and measured by Nonodrop 3000 spectrophotometer (Shimadzu, Japan).
The mass spectrometer analysis was performed on QTRAP 6500^+ low mass spectrometers. The Phenomenex LUNA C18 (2) Reversed Phase (Phenomenex, 150 × 2.0 mm, i.d., 5 μm) was used for the chromatographic separation with a mobile phase of acetonitrile (A) and the aqueous phase of 2 mM ammonium acetate (B) at a flow rate of 0.3 mL/min. The gradient elution procedure was set at 0−2 min: 20%A, 2−3 min: 20−65%A, 3−4 min: 65−75%A, 4−5 min: 75−90%A, 5−6 min: 90−100%A, and the re-equilibration time was set for 5 mins with 20%A after gradient elution. The tailing factors under the selected chromatographic conditions were calculated as 0.993 and 0.996 for GCK and PPD, respectively, while the theoretical plates were measured as 1.13 × 10^4. The injection volume was 10 μL with the temperature of column at 40°C. The mass spectrometer parameters were optimized as follow, Curtain Gas (CUR), 35; collision gas, 9;, ionspray voltage,-4500 V; temperature, 450°C; curtain gas, 35 psi; ion source gas 1, 50 psi; ion source gas 2, 55 psi. Both GCK and PPD were analyzed in multiple reaction monitoring (MRM) mode, shown as Fig 1.
After fasted for 12 h, all animals were once orally administrated with a medium dose of GCK (22.5 mg/kg) in 0.9% normal saline. Blood samples were collected from the tail vein at 0 h, 0.5 h, 1 h, 1.5 h, 2.5 h, 3 h, 3.5 h, 4 h, 5 h, 6 h, 7 h, 9.5 h, and 11 h after oral administration. All blood samples were immediately centrifuged at 4000 rpm for 20 min at 4°C. Approximate 100 μL of supernatant was collected and stored at -80°C for analysis. Non-compartmental model analysis was operated on DAS 2.0 software of the Chinese Pharmacological Society, and pharmacokinetic parameters were calculated accordingly.
The blood samples (50 μL) were mixed with 150 μL of digoxin solution (Internal standard (IS), 3.33 ng/mL), subsequently vortex-mixed and centrifuged at 1.4 × 10^4 rpm (4°C) to remove the precipitated proteins for 10 min, respectively. Finally, 100 μL of supernatant was subjected to LC-MS/ MS analysis.
Pharmacokinetics parameters including AUC, terminal elimination half-life (T1/2), mean retention time (MRT), apparent distribution volume (Vz/ F), and clearance rate (CL) were calculated using non-compartmental model analysis (DAS 2.0 software, Chinese Pharmacological Association, China). Other parameters, such as maximum plasma concentration (Cmax) and time to maximum plasma concentration (Tmax), were obtained directly from the plasma concentration-time diagram. All data were expressed as mean ± SD. Significant differences were marked by the symbols ** p < 0.01, *** p < 0.001, and **** p < 0.0001.

[2] = Freeze/thaw and long-term stability of QC samples in rat plasma; assay type: physicochemical; details: n = 6; for Freeze/thaw stability Accuracy: frozen –80°C / thawed 25°C three cycles; for long-term stability Accuracy: –80°C for thirty days
Experimental: The LQC, MQC, and HQC samples were stored at –80°C for thirty days. The employed samples were tested to assess long-term stability. Six replicates of all QC samples were frozen at –80°C and thawed at 25°C for three cycles, which were then determined to assess the freeze/thaw cycle stability. The variabilities of precision and accuracy should be within15%.

[3] = set-up: method as in PMID 28955238; details: human plasma, single dose of oral GCK; ref [14]; cited from earlier work
[4] = pseudo-GF rats compared with SPF rats
[5] = high QC (GCK 552, PPD 456 ng/mL)
[6] = low QC (GCK 10.8, PPD 8.91 ng/mL)
[7] = middle QC (GCK 86.3, PPD 71.3 ng/mL)

## CC(C)=CCCC(C)(OC1OC(CO)C(O)C(O)C1O)C1CCC2(C)C1C(O)CC1C3(C)CCC(O)C(C)(C)C3CCC12C (stereo not drawn) [GCK, Ginsenoside Compound K]
[1]; SPF group
  AUC(0-inf): 679 ± 284 ng·h/mL
  Tmax: 3.36 ± 1.25 h
  half-life: 2.2 ± 1.69 h
  AUC(0-t): 586 ± 161 ng·h/mL
  CL/F: 632 mL/min/kg
  MRT last: 4.16 ± 1.11 h
  Vd/F: 96.5 ± 44.9 L/kg
  Cmax: 162 ± 46.9 ng/mL
[1]; pseudo-GF group
  AUC(0-inf): 2300 ± 1630 ng·h/mL
  Tmax: 5.86 ± 1.35 h
  half-life: 3.93 ± 1.65 h
  AUC(0-t): 1340 ± 402 ng·h/mL
  CL/F: 226 mL/min/kg
  MRT last: 6.05 ± 0.42 h
  Vd/F: 63.2 ± 15.4 L/kg
  Cmax: 259 ± 70 ng/mL
[1]; pseudo-GF group compared with SPF group
  AUC increased: approximately twice
[1]; [4]
  AUC 0–11 increased by: 1.3 times
  Cmax times higher than that of SPF rats: 1.6 times
[1]; pseudo-GF rats compared with SPF rats, P <0.01
  CLz/F decreased by: 0.6 times
[2]; [5]
  Freeze/thaw stability Accuracy: 104.11%
  long-term stability Accuracy: 103.91%
[2]; [6]
  Freeze/thaw stability Accuracy: 102.76%
  long-term stability Accuracy: 95.56%
[2]; [7]
  Freeze/thaw stability Accuracy: 106.47%
  long-term stability Accuracy: 103.32%

## CC(C)=CCC[C@](C)(O)[C@H]1CC[C@]2(C)[C@@H]1[C@H](O)C[C@@H]1[C@@]3(C)CC[C@H](O)C(C)(C)[C@@H]3CC[C@]12C [PPD, protopanaxadiol]
[1]; after single oral GCK 22.5 mg/kg, both SPF and pseudo-GF groups, LLOQ 4.45 ng/mL
  Detection of the metabolite PPD in rat plasma: not detected
[2]; [5]
  Freeze/thaw stability Accuracy: 89.65%
  long-term stability Accuracy: 101.93%
[2]; [6]
  Freeze/thaw stability Accuracy: 92.44%
  long-term stability Accuracy: 96.17%
[2]; [7]
  Freeze/thaw stability Accuracy: 93.50%
  long-term stability Accuracy: 97.83%
[3]
  Cmax of PPD: ~4.2 ng/mL
  T1/2 of PPD: more than 19 hours
  Tmax of PPD: ~25 h
